# Results from the supplement of paper PMC10307832.
# What was measured:
# Assay in all cases: relative viability (nuclei count vs DMSO), 5 days (fraction); higher = more cells survive
# COR-L23 = system: COR-L23
# In short: (§1)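 A single step with final 0.05% Triton X-100, 1% formaldehyde and 1 ug/ml Hoechst fixed the cells and stained nuclei 5 days after treatment. Lung cancer cell lines in 1536-well plates had been treated by pin tool the day after seeding with one drug alone or a fixed anchor-drug dose plus five library-drug doses (not always all listed) in √10 steps, and nuclei were counted on 4× images. Relative viability is the ratio of nuclei in treated wells to nuclei in vehicle wells, taken as the median of duplicate plates.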
# ChaGo-K-1 = system: ChaGo-K-1
# In short: as §1
# EMC-BAC-2 = system: EMC-BAC-2
# In short: as §1
# HARA = system: HARA
# In short: as §1
# HCC-15 = system: HCC-15
# In short: as §1
# HCC-366 = system: HCC-366
# In short: as §1
# HCC-78 = system: HCC-78
# In short: as §1
# HOP-62 = system: HOP-62
# In short: as §1
# LC-2-ad = system: LC-2-ad
# In short: as §1
# NCI-H1395 = system: NCI-H1395
# In short: as §1
# NCI-H1793 = system: NCI-H1793
# In short: as §1
# NCI-H1944 = system: NCI-H1944
# In short: as §1
# NCI-H1993 = system: NCI-H1993
# In short: as §1
# NCI-H2023 = system: NCI-H2023
# In short: as §1
# NCI-H2126 = system: NCI-H2126
# In short: as §1
# NCI-H2228 = system: NCI-H2228
# In short: as §1
# NCI-H23 = system: NCI-H23
# In short: as §1
# NCI-H2405 = system: NCI-H2405
# In short: as §1
# NCI-H358 = system: NCI-H358
# In short: as §1
# NCI-H838 = system: NCI-H838
# In short: as §1
# SK-LU-1 = system: SK-LU-1
# In short: as §1
compound,measurement,setting,value
O=c1cc(N2CCOCC2)oc2c(-c3cccc4c3sc3ccccc34)cccc12 + Nc1nc2[nH]cc(CCc3ccc(C(=O)N[C@@H](CCC(=O)O)C(=O)O)cc3)c2c(=O)[nH]1 [Pemetrexed] (partner 0.2 µM),relative viability,COR-L23; first compound 0.01 µM,0.189
same,relative viability,COR-L23; first compound 0.03162 µM,0.204
same,relative viability,COR-L23; first compound 0.1 µM,0.203
same,relative viability,COR-L23; first compound 0.3162 µM,0.201
same,relative viability,COR-L23; first compound 1 µM,0.204
same,relative viability,ChaGo-K-1; first compound 0.01 µM,0.267
same,relative viability,ChaGo-K-1; first compound 0.03162 µM,0.249
same,relative viability,ChaGo-K-1; first compound 0.1 µM,0.247
same,relative viability,ChaGo-K-1; first compound 0.3162 µM,0.259
same,relative viability,ChaGo-K-1; first compound 1 µM,0.286
same,relative viability,EMC-BAC-2; first compound 0.01 µM,0.459
same,relative viability,EMC-BAC-2; first compound 0.03162 µM,0.43
same,relative viability,EMC-BAC-2; first compound 0.1 µM,0.457
same,relative viability,EMC-BAC-2; first compound 0.3162 µM,0.477
same,relative viability,EMC-BAC-2; first compound 1 µM,0.456
same,relative viability,HARA; first compound 0.01 µM,0.217
same,relative viability,HARA; first compound 0.03162 µM,0.271
same,relative viability,HARA; first compound 0.1 µM,0.225
same,relative viability,HARA; first compound 0.3162 µM,0.238
same,relative viability,HARA; first compound 1 µM,0.262
same,relative viability,HCC-15; first compound 0.01 µM,0.214
same,relative viability,HCC-15; first compound 0.03162 µM,0.221
same,relative viability,HCC-15; first compound 0.1 µM,0.225
same,relative viability,HCC-15; first compound 0.3162 µM,0.205
same,relative viability,HCC-15; first compound 1 µM,0.195
same,relative viability,HCC-366; first compound 0.01 µM,0.159
same,relative viability,HCC-366; first compound 0.03162 µM,0.181
same,relative viability,HCC-366; first compound 0.1 µM,0.149
same,relative viability,HCC-366; first compound 0.3162 µM,0.144
same,relative viability,HCC-366; first compound 1 µM,0.186
same,relative viability,HCC-78; first compound 0.01 µM,0.897
same,relative viability,HCC-78; first compound 0.03162 µM,0.886
same,relative viability,HCC-78; first compound 0.1 µM,0.933
same,relative viability,HCC-78; first compound 0.3162 µM,0.877
same,relative viability,HCC-78; first compound 1 µM,0.979
same,relative viability,HOP-62; first compound 0.01 µM,0.303
same,relative viability,HOP-62; first compound 0.03162 µM,0.344
same,relative viability,HOP-62; first compound 0.1 µM,0.276
same,relative viability,HOP-62; first compound 0.3162 µM,0.39
same,relative viability,HOP-62; first compound 1 µM,0.384
same,relative viability,LC-2-ad; first compound 0.01 µM,0.267
same,relative viability,LC-2-ad; first compound 0.03162 µM,0.284
same,relative viability,LC-2-ad; first compound 0.1 µM,0.282
same,relative viability,LC-2-ad; first compound 0.3162 µM,0.279
same,relative viability,LC-2-ad; first compound 1 µM,0.304
same,relative viability,NCI-H1395; first compound 0.03162 µM,0.908
same,relative viability,NCI-H1395; first compound 0.1 µM,0.909
same,relative viability,NCI-H1395; first compound 0.3162 µM,1.01
same,relative viability,NCI-H1395; first compound 1 µM,0.855
same,relative viability,NCI-H1793; first compound 0.01 µM,0.776
same,relative viability,NCI-H1793; first compound 0.03162 µM,0.728
same,relative viability,NCI-H1793; first compound 0.1 µM,1.01
same,relative viability,NCI-H1793; first compound 0.3162 µM,0.961
same,relative viability,NCI-H1793; first compound 1 µM,0.74
same,relative viability,NCI-H1944; first compound 0.01 µM,0.691
same,relative viability,NCI-H1944; first compound 0.03162 µM,0.674
same,relative viability,NCI-H1944; first compound 0.1 µM,0.624
same,relative viability,NCI-H1944; first compound 0.3162 µM,0.589
same,relative viability,NCI-H1944; first compound 1 µM,0.635
same,relative viability,NCI-H1993; first compound 0.01 µM,0.624
same,relative viability,NCI-H1993; first compound 0.03162 µM,0.524
same,relative viability,NCI-H1993; first compound 0.1 µM,0.621
same,relative viability,NCI-H1993; first compound 0.3162 µM,0.54
same,relative viability,NCI-H1993; first compound 1 µM,0.553
same,relative viability,NCI-H2023; first compound 0.01 µM,0.284
same,relative viability,NCI-H2023; first compound 0.03162 µM,0.276
same,relative viability,NCI-H2023; first compound 0.1 µM,0.227
same,relative viability,NCI-H2023; first compound 0.3162 µM,0.249
same,relative viability,NCI-H2023; first compound 1 µM,0.161
same,relative viability,NCI-H2126; first compound 0.01 µM,0.713
same,relative viability,NCI-H2126; first compound 0.03162 µM,0.72
same,relative viability,NCI-H2126; first compound 0.1 µM,0.636
same,relative viability,NCI-H2126; first compound 0.3162 µM,0.668
same,relative viability,NCI-H2126; first compound 1 µM,0.674
same,relative viability,NCI-H2228; first compound 0.01 µM,0.342
same,relative viability,NCI-H2228; first compound 0.03162 µM,0.356
same,relative viability,NCI-H2228; first compound 0.1 µM,0.396
same,relative viability,NCI-H2228; first compound 0.3162 µM,0.356
same,relative viability,NCI-H2228; first compound 1 µM,0.355
same,relative viability,NCI-H23; first compound 0.01 µM,0.732
same,relative viability,NCI-H23; first compound 0.03162 µM,0.761
same,relative viability,NCI-H23; first compound 0.3162 µM,0.659
same,relative viability,NCI-H23; first compound 1 µM,0.609
same,relative viability,NCI-H2405; first compound 0.01 µM,1.02
same,relative viability,NCI-H2405; first compound 0.03162 µM,1.18
same,relative viability,NCI-H2405; first compound 0.1 µM,0.943
same,relative viability,NCI-H2405; first compound 0.3162 µM,1.11
same,relative viability,NCI-H2405; first compound 1 µM,1.09
same,relative viability,NCI-H358; first compound 0.01 µM,0.166
same,relative viability,NCI-H358; first compound 0.03162 µM,0.179
same,relative viability,NCI-H358; first compound 0.1 µM,0.181
same,relative viability,NCI-H358; first compound 0.3162 µM,0.18
same,relative viability,NCI-H358; first compound 1 µM,0.173
same,relative viability,NCI-H838; first compound 0.01 µM,0.255
same,relative viability,NCI-H838; first compound 0.03162 µM,0.237
same,relative viability,NCI-H838; first compound 0.1 µM,0.241
same,relative viability,NCI-H838; first compound 0.3162 µM,0.227
same,relative viability,NCI-H838; first compound 1 µM,0.26
same,relative viability,SK-LU-1; first compound 0.01 µM,0.963
same,relative viability,SK-LU-1; first compound 0.03162 µM,0.975
same,relative viability,SK-LU-1; first compound 0.1 µM,1.02
same,relative viability,SK-LU-1; first compound 0.3162 µM,1
same,relative viability,SK-LU-1; first compound 1 µM,0.953
